The text below walks through data of patent US6887846B2, “Antimicrobial amino acid sequences derived from alpha-melanocyte-stimulating hormone” (priority 1999, dated 2005).

For assay [1], the system named is C. albicans (clinical isolate). Description: Trial of melanocortin peptides on C. albicans viability (colony formation). Format: cell-based. The note with it: for reduction of C. albicans CFU at higher concentrations: up to 10^-4M; for C. albicans colony forming units (CFU): peptide 10^−15 to 10^−4M, 2 hours at 37° C., compared to controls. How it is done:
S. aureus (ATCC 29213) and C. albicans (clinical isolate) were obtained from the collection of the Department of Microbiology, Ospedale Maggiore di Milano. C. albicans were maintained on Sabouraud'[…] periodically transferred to Sabouraud's agar plates and incubated for 48 hours at 28° C. To prepare stationary growth phase yeast, a colony was taken from the agar plate and transferred into 30 ml Sabouraud-dextrose broth and incubated for 72 hours at 32° C. Cells were centrifuged at 1000×g for 10 minutes and the pellet was washed twice with distilled water. Cells were counted and suspended in Hank's balanced salt solution (“HBSS”) to the desired concentration. […] Cells were then washed in cold distilled water and diluted with HBSS to a concentration of 100 organisms/ml. One ml aliquots were dispensed on blood agar plates and incubated for 48 hours at 37° C. Organism viability was estimated from the number of colonies formed. […] There were at least six replicates for each concentration of peptide. […] The reaction was stopped after 3 minutes by the addition of ice cold ethanol. cAMP was measured in duplicate using a commercial enzyme immunoassay (EIA) kit (Amersham, United Kingdom) after extraction via the liquid-phase method according to manufacturer's instructions.

For a further assay, the system named is cAMP. Description: Trial of α-MSH peptides on cAMP accumulation in C. albicans. The note with it: 10^−6M; for cAMP content of C. albicans: 3 minutes at 37° C., permeabilized yeast; for increase in cAMP compared with forskolin: equimolar. Format: cell-based. The method, then: The reaction was stopped after 3 minutes by the addition of ice cold ethanol. cAMP was measured in duplicate using a commercial enzyme immunoassay (EIA) kit (Amersham, United Kingdom) after extraction via the liquid-phase method according to manufacturer's instructions. The effect of forskolin (10^−6M) on C. albicans colony formation was determined using the same procedures as for α-MSH peptides.

The subject of the next assay is S. aureus. The assay is described as follows: Influence on urokinase-induced growth enhancement of S. aureus. As to conditions: peptide 10^−6M, urokinase 500 U, 4 hours at 37° C.; p<0.001 vs urokinase alone. Type of assay: cell-based. The text has this:
In experiments on S. aureus we determined the influence of α-MSH on urokinase-induced growth-enhancement. Hart, D. A., Loule, T., Krulikl, W., Reno, C., Staphylococcus Aureus Strains Differ in Their in Vitro Responsiveness to Human Urokinase: Evidence That Methicillin-resistant Strains Are Predominantly Nonresponsive to the Growth-enhancing Effects of Urokinase, Can. J. Microbiol. 42, 1024-31 (1966). […] Appropriate dilutions of S. aureus were dispensed on agar plates and colonies counted after 24 hours incubation at 37° C.

The next assay deals with S. aureus (ATCC 29213). The assay is described as follows: Trial of melanocortin peptides on S. aureus viability (colony formation). Type of assay: cell-based. The note with it: peptide 10^−15 to 10^−4M, 2 hours at 37° C., compared to controls. How it is done: S. aureus (ATCC 29213) and C. albicans (clinical isolate) were obtained from the collection of the Department of Microbiology, Ospedale Maggiore di Milano. C. albicans were maintained on Sabouraud'[…] periodically transferred to Sabouraud's agar plates and incubated for 48 hours at 28° C. To prepare stationary growth phase yeast, a colony was taken from the agar plate and transferred into 30 ml Sabouraud-dextrose broth and incubated for 72 hours at 32° C. Cells were centrifuged at 1000×g for 10 minutes and the pellet was washed twice with distilled water. Cells were counted and suspended in Hank's balanced salt solution (“HBSS”) to the desired concentration. Viability, determined by the exclusion of 0.01% methylene blue, remained >98%. […] Cells were then washed in cold distilled water and diluted with HBSS to a concentration of 100 organisms/ml. One ml aliquots were dispensed on blood agar plates and incubated for 24 hours at 37° C. Organism viability was estimated from the number of colonies formed.

The test system of assay [2] is C. albicans killing by human neutrophils. Description: Trial of α-MSH peptides on C. albicans killing by human neutrophils. As to conditions: 2 hours at 37° C., vs medium alone. Format: cell-based. How it is done: Venous blood (20 ml) from healthy volunteers was anticoagulated with heparin. Neutrophils were isolated using dextran sedimentation and Ficoll-Hypaque (Sigma Chemical Co., St. Louis, Mo., USA) centrifugation. Erythrocytes were lysed via hypotonic shock. Neutrophils represented at least 97% of the cell suspension. Cell viability, estimated by trypan blue exclusion, was >98%. Neutrophils were suspended to final concentration in HBSS. […] After incubation, the culture tubes were placed on ice to stop growth and extracellular organisms were washed twice with centrifugation at 1000×g at 4° C. A 2.5% sodium desoxycholate solution was added to the suspension and the tubes were shaken for 5 min. Cold distilled water was added to obtain a suspension of 10^6 cells/ml. Two 1/100 serial dilution in HBSS were made to obtain a final suspension of 100 cells/ml. Aliquots of 1 ml were dispensed on blood agar plates and incubated for 48 hours at 37° C. Colony forming units (“CFU”) were counted at the end of the incubation period. Experiments were run in triplicate and repeated using blood from 5 different donors.

The test system of the next assay is HIV-1. As to conditions: acutely and chronically infected monocytes; cited from earlier work.
The conditions of assay [3]: vs α-MSH; cited from earlier work.

“Also recorded” adds a separate entry of the source.

For the substance “ACTH (1-39): adrenocorticotropic hormone (1-39), melanocortin peptide (SYSMEHFRWGKPVGKKRRPVKVYPNGAEDESAEAFPLEF; Corticotropin; UniProt P01189 138-176, looked up) [reference compound]”, the “relative potency in reducing C. albicans viability” value in assay [1] (10^−6M) is on record as “did not reduce C. albicans viability”. The “reduction of C. albicans CFU at higher concentrations” value in assay [1] is listed as “ineffective”.

Consider “ACTH (18-39): ACTH fragment (18-39) (CLIP) [reference compound]”, for which the “relative potency in reducing C. albicans viability” value in assay [1] (10^−6M) is “did not reduce C. albicans viability”. In assay [1], the “reduction of C. albicans CFU at higher concentrations” value is reported as “ineffective”.

With “HFRWGKPV (Ac-HFRWGKPV-NH2) [α-MSH (6-13)]”, the “relative potency in reducing C. albicans viability” value in assay [1] (10^−6M) is given as “most effective”.

As for “KPV (Ac-Lys-Pro-Val-NH2) [α-MSH (11-13)]”, in the assay on cAMP, the “cAMP content of C. albicans” value is listed as “enhanced cAMP content in the yeast” and the “increase in cAMP compared with forskolin” value is “same order of magnitude as that induced by equimolar forskolin”. The “urokinase-enhanced S. aureus colony formation” value with S. aureus was “significantly inhibited this urokinase-enhancing effect; also recorded: significantly inhibited the enhancing effect of urokinase”. Moreover, in the assay on S. aureus (ATCC 29213), the “S. aureus colony formation (CFU)” value is listed as “significantly decreased S. aureus colony forming units; also recorded: inhibited S. aureus colony formation”. The “relative potency in reducing C. albicans viability” value in assay [1] (10^−6M) is reported as “most effective”. For the same substance, the “C. albicans colony forming units (CFU)” value in assay [1] is listed as “significantly decreased C. albicans colony forming units; also recorded: greatly reduced”. In addition, the “killing of C. albicans by human neutrophils” value in assay [2] was “enhanced killing of C. albicans by human neutrophils”.

Consider MEHFRWG (Ac-MEHFRWG-NH2) [α-MSH (4-10)], for which, in assay [1] (10^−6M), the “inhibition of C. albicans CFU” value is on record as “approximately 50%”.

Consider “NH2-Lys-Pro-Val-AcCys-CysAc-Val-Pro-Lys-NH2 [KPV dimer]”, for which the “S. aureus colony formation (CFU)” value in the assay with S. aureus (ATCC 29213) is recorded as “significantly decreased S. aureus colony forming units; also recorded: inhibited S. aureus colony formation”. Besides, the “effectiveness against microbes compared with α-MSH (11-13)” value in assay [1] (S. aureus and C. albicans) is listed as “at least as effective as α-MSH (11-13) against microbes”. Further, the “C. albicans colony forming units (CFU)” value in assay [1] was “significantly decreased C. albicans colony forming units; also recorded: inhibited C. albicans colony formation”.

Regarding SYSMEHFRWGKPV [α-MSH (1-13)], in the assay on cAMP, the “cAMP content of C. albicans” value was “enhanced cAMP content in the yeast” and the “increase in cAMP compared with forskolin” value is given as “same order of magnitude as that induced by equimolar forskolin”. In addition, in the assay on S. aureus, the “urokinase-enhanced S. aureus colony formation” value was “significantly inhibited this urokinase-enhancing effect; also recorded: significantly inhibited the enhancing effect of urokinase”. Also, in the assay with HIV-1, the HIV-1 replication entry was “inhibits HIV-1 replication in acutely and chronically infected monocytes”. The “S. aureus colony formation (CFU)” value in the assay with S. aureus (ATCC 29213) was “significantly decreased S. aureus colony forming units; also recorded: inhibited S. aureus colony formation”. For the same substance, the “C. albicans colony forming units (CFU)” value in assay [1] is listed as “significantly decreased C. albicans colony forming units; also recorded: greatly reduced”. In assay [2], the “killing of C. albicans by human neutrophils” value is “enhanced killing of C. albicans by human neutrophils”.

In the case of [Nle^4,D-Phe^7]-α-MSH, the “potency in reducing fever relative to the parent peptide” value in assay [3] is given as “approximately 10 times”.
